Measured values published in paper PMC5432571 (Frontiers in Molecular Neuroscience, 2017).
Positions count from the first letter of the chain named. Read-outs that look alike come from different tables or passages of the source.

Tests used:
[1] = biological target: T1, homomeric α1 GlyR (Homo sapiens, UniProt P23415); test: Whole-cell patch-clamp of glycine-induced currents, α1 GlyR expressed in CHO cells; format: cell-based; details: for inhibition at 30 µM / inhibition at 100 µM / inhibition at 300 µM: CHO, long protocol, read-out: inhibition of α1GlyR-mediated currents; for inhibition at 30 µM: NFA 30 μM; for inhibition at 100 µM: NFA 100 μM; for inhibition at 300 µM: NFA 300 μM
T1 construct: expressed in transfected cells; host or cells: CHO cells
T1 sequence (P23415 29-449 isoform P23415-2 limits assumed): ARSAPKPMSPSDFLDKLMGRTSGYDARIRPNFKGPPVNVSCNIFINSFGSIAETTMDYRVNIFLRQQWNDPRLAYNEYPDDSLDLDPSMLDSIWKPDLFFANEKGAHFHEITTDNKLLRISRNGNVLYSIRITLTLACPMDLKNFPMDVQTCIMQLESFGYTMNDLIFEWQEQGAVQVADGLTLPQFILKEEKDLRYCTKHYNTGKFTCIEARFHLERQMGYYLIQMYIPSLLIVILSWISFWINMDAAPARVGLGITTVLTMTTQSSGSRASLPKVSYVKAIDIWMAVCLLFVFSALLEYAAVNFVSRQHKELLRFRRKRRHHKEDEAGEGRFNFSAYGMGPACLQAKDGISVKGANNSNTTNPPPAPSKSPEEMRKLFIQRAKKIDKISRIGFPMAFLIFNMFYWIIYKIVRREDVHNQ
Procedure: (§1) The experiments were carried out on cultured Chinese hamster ovary (CHO) cells obtained from the American Type Tissue Culture Collection (ATCC, Molsheim, France) that were maintained in culture conditions as previously described (Mukhtarov et al., [2013]; Maleeva et al., [2015]).
(§2) One day before transfection, cells were plated on the cover slips (12 mm in diameter) and placed inside 35-mm cell culture dishes with 2 ml of medium. Transfection was performed using the Lipofectamine 3000 protocol (Life Technology, USA). To facilitate identification of transfected cells a green fluorescent protein (GFP) was added to the transfection mixture. For expression of functional heteromeric receptors, cells were simultaneously transfected with cDNAs of α and β subunits in the ratio 1:10. Three hours after the initial exposure of cells to the cDNAs the culture medium was replaced with that containing strychnine (1 μM), which prevents spontaneous activation of GlyRs. Electrophysiological recordings were performed in the fluorescent cells 24–72 h after transfection.
(§3) Whole-cell and outside-out recordings were performed at room temperature (20–25°C) using an EPC-9 amplifier (HEKA Elektronik, Germany). Cells were continuously superfused with external solution containing (mM): NaCl 140, CaCl2 2, KCl 2.8, MgCl2 4, HEPES 20, glucose 10; pH 7.4; 320–330 mOsm. Intracellular solution used for filling recording patch pipettes contained (mM): CsCl 140, CaCl2 6, MgCl2 2, MgATP 2, NaGTP 0.4, HEPES/CsOH 10, BAPTA (tetrapotassium salt) 2; pH 7.3; 290 mOsm. Two different protocols of solutions application were used in this study. […] A “ramp protocol” implies the gradual change of Vhold alternately from −80 to +80 mV and from +80 to −80 mV during 1 s, Vhold was fixed at −80 or +80 mV at the beginning and at the end of the ramp for 500 ms (Figure 2B).
(§4) Recording pipettes were pulled from borosilicate glass capillaries (Harvard Apparatus Ltd, USA) and had resistances of 5–10 MOhm. For the rapid replacement of the solutions, the fast application system was used. Three parallel rectangular tubes (100 × 100 μm) were positioned 40–50 μm above the recorded cell. The movement of the tubes was controlled by a computer-driven fast exchange system (SF 77A Perfusion Fast-Step, Warner, USA) allowing a 10–90% solution exchange in 3–5 ms, as measured by open electrode controls (1/10 external solution/water). Cells with low input resistance (<150 MOhm) and a rapid run-down (>30% with repetitive application) were excluded from analysis.
(§5) Electrophysiological recordings were performed using PatchMaster (HEKA Electronic, Germany) software.
(§6) The fractional electrical distance from the external side of the membrane (δ) at which bound NFA blocked the current was calculated using the Woodhull equation: IC50(V)=IC50(0) exp (−δFV/RT), where IC50(V) is IC50 at the given membrane potential, IC50(0) – at 0 mV, V – membrane potential and F, R, T have their usual meanings. δ was determined from a plot of IC50 values against membrane potential.

[2] = biological target: T2, G254A-α1 GlyR (Homo sapiens, UniProt P23415, G282A); test: Whole-cell patch-clamp of glycine-induced currents, G254A-α1 GlyR mutant expressed in CHO cells; format: cell-based; details: for inhibition at 30 µM / inhibition at 100 µM / inhibition at 300 µM: CHO, long application protocol, read-out: inhibition of G254A-α1 GlyR mediated currents; for inhibition at 30 µM: NFA 30 μM; for inhibition at 100 µM: NFA 100 μM; for inhibition at 300 µM: NFA 300 μM
T2 construct: expressed in transfected cells; host or cells: CHO cells
T2 sequence (P23415 29-449 isoform P23415-2 G282A limits assumed): T1 sequence (P23415 29-449 isoform P23415-2 limits assumed) with G254A
Procedure: as §1, §2, §3, §4, §5, §6

[3] = +30 mV, glycine 30 μM, representative, read-out: NFA IC50 (representative IC50 curve)
[4] = +30 mV, glycine 100 μM, representative, read-out: NFA IC50 (representative IC50 curve)
[5] = +80 mV, glycine 30 μM, ramp protocol, mean ± SEM, read-out: IC50 of NFA
[6] = +80 mV, glycine 30 μM, representative, read-out: NFA IC50 (representative IC50 curve)
[7] = +80 mV, glycine 100 μM, representative, read-out: NFA IC50 (representative IC50 curve)
[8] = membrane potential 30 mV, glycine 30 μM
[9] = membrane potential 50 mV, glycine 30 μM
[10] = membrane potential 80 mV, glycine 30 μM
[11] = membrane potential −50 mV, glycine 30 μM
[12] = membrane potential −70 mV, glycine 30 μM
[13] = membrane potential −80 mV, glycine 30 μM
[14] = −30 mV, glycine 30 μM, representative, read-out: NFA IC50 (representative IC50 curve)
[15] = −30 mV, glycine 100 μM, representative, read-out: NFA IC50 (representative IC50 curve)
[16] = −80 mV, glycine 30 μM, representative, read-out: NFA IC50 (representative IC50 curve)
[17] = −80 mV, glycine 100 μM, representative, read-out: NFA IC50 (representative IC50 curve)

O=C(O)c1cccnc1Nc1cccc(C(F)(F)F)c1 [NFA, Niflumic acid]
IC50 [1, 3]: 218 µM | IC50 [1, 4]: 107 µM | IC50 [1, 5]: 197 ± 18 µM | IC50 [1, 6]: 178 µM | IC50 ([1]; +80 mV, glycine 100 μM, ramp protocol, mean ± SEM, read-out: IC50 of NFA): 90 ± 8 µM | IC50 [1, 7]: 94 µM | inhibition at 30 µM ([1]; Vhold +30 mV, glycine 30 μM): 16 ± 7% | inhibition at 30 µM ([1]; Vhold −30 mV, glycine 30 μM): 3 ± 4% | inhibition at 100 µM ([1]; Vhold +30 mV, glycine 30 μM): 43 ± 11% | inhibition at 100 µM ([1]; Vhold −30 mV, glycine 30 μM): 16 ± 6% | inhibition at 300 µM ([1]; Vhold +30 mV, glycine 30 μM): 75 ± 4% | inhibition at 300 µM ([1]; Vhold −30 mV, glycine 30 μM): 48 ± 9% | Hill coefficient (nH) of NFA interaction ([1]; glycine 30 μM): 1.5 ± 0.11 | decrease of IC50 at +80 mV versus −80 mV ([1]; glycine 100 μM): about 3 fold | Hill coefficient (nH) of NFA interaction [1, 8]: 1.87 ± 0.02 | Hill coefficient (nH) of NFA interaction [1, 9]: 1.55 ± 0.08 | Hill coefficient (nH) of NFA interaction [1, 10]: 1.28 ± 0.07 | Hill coefficient (nH) of NFA interaction [1, 11]: 1.7 ± 0.08 | Hill coefficient (nH) of NFA interaction [1, 12]: 1.65 ± 0.08 | Hill coefficient (nH) of NFA interaction [1, 13]: 1.56 ± 0.07 | Hill coefficient (nH) of NFA inhibitory action ([1]; overall statement in discussion): ~1.5 | IC50 [1, 14]: 256 µM | IC50 [1, 15]: 171 µM | IC50 ([1]; −80 mV, glycine 30 μM, ramp protocol, mean ± SEM, read-out: IC50 of NFA): 315 ± 30 µM | IC50 [1, 16]: 272 µM | IC50 ([1]; −80 mV, glycine 100 μM, ramp protocol, mean ± SEM, read-out: IC50 of NFA): 270 ± 26 µM | IC50 [1, 17]: 209 µM | IC50 [2, 3]: 92 µM | IC50 [2, 4]: 106 µM | IC50 [2, 5]: 64 ± 10 µM | IC50 [2, 6]: 68 µM | IC50 [2, 7]: 57 µM | inhibition at 30 µM ([2]; Vhold +30 mV, glycine 30 μM): 23 ± 7% | inhibition at 30 µM ([2]; Vhold −30 mV, glycine 30 μM): 22 ± 4% | inhibition at 100 µM ([2]; Vhold +30 mV, glycine 30 μM): 43 ± 10% | inhibition at 100 µM ([2]; Vhold −30 mV, glycine 30 μM): 34 ± 6% | inhibition at 300 µM ([2]; Vhold +30 mV, glycine 30 μM): 76 ± 4% | inhibition at 300 µM ([2]; Vhold −30 mV, glycine 30 μM): 52 ± 11% | IC50 ([2]; MP +80 mV, increased agonist concentration (glycine 100 μM), mean ± SEM, read-out: IC50 of NFA): 58 ± 8 µM | IC50 ([2]; at negative potentials, glycine 30 μM, ramp protocol, mean ± SEM, read-out: IC50 of NFA): 257 ± 25 µM | level of the NFA binding site from the extracellular side ([2]; both examined agonist concentrations, Woodhull analysis): ~ 30% | Fractional electrical distance (δ) from the extracellular side of the membrane ([2]; glycine 30 μM, Woodhull analysis): 0.37 ± 0.04 (n = 9) | Fractional electrical distance (δ) from the extracellular side of the membrane ([2]; glycine 100 μM, Woodhull analysis): 0.30 ± 0.04 (n = 7) | Hill coefficient (nH) of NFA interaction [2, 8]: 1.3 ± 0.08 | Hill coefficient (nH) of NFA interaction [2, 9]: 1.36 ± 0.11 | Hill coefficient (nH) of NFA interaction ([2]; membrane potential 70 mV, glycine 30 μM): 1.26 ± 0.1 | Hill coefficient (nH) of NFA interaction [2, 10]: 1.22 ± 0.09 | Hill coefficient (nH) of NFA interaction [2, 11]: 1.37 ± 0.18 | Hill coefficient (nH) of NFA interaction [2, 12]: 1.34 ± 0.1 | Hill coefficient (nH) of NFA interaction [2, 13]: 1.46 ± 0.16 | IC50 [2, 14]: 185 µM | IC50 [2, 15]: 190 µM | IC50 [2, 16]: 230 µM | IC50 [2, 17]: 260 µM
